Values of other authors, collected in patent US8673356B2, “Stable fixed dose topical formulation” (Glenmark Pharmaceuticals Limited, priority 2008, dated 2014).

Key:
[1] = converted in vivo by hydrolysis to active clindamycin

Q: Which Solubility in ethanol (ethanol) does the source give for `COc1ccc(-c2ccc3cc(C(=O)O)ccc3c2)cc1C12CC3CC(CC(C3)C1)C2` [Adapalene, 6-[3-(1-adamantyl)-4-methoxyphenyl]-2-naphthoic acid] here?
A: very slightly soluble

Q: And the Solubility in tetrahydrofuran (tetrahydrofuran)?
A: soluble

Q: What about the Solubility in water of the same compound?
A: practically insoluble

Q: Which results are given for `CCC[C@@H]1C[C@@H](C(=O)NC(C2O[C@H](SC)[C@H](OP(=O)(O)O)[C@@H](O)[C@H]2O)[C@H](C)Cl)N(C)C1` (stereo partly drawn) [Clindamycin phosphate, methyl 7-chloro-6,7,8-trideoxy-6-(1-methyl-trans-4-propyl-L-2-pyrrolidinecarboxamido)-1-thio-L-threo-D-galactooctopyranoside 2-(dihydrogen phosphate)]?
A: Solubility in water: water soluble; Activity in vitro [1]: inactive
